Patent publication US9067972B2, “Skin aging-inhibiting peptide” (CALPIS CO., LTD., priority 2008, dated 2015)
Peptide text beside a SMILES is read from it.

What follows are compounds tested on Caco-2 cells.
Protocol: Caco-2 cells were obtained from the American Type Culture Collection. Cells with a passage number of 40 to 70 were used for the permeation test. The culture medium comprised Dulbecco's modified Eagle's medium (Sigma) supplemented with fetal bovine serum (10%, AGC TECHNO GLASS CO., LTD.), a non-essential amino acid solution (1%, Gibco), and penicillin-streptomycin (each 200 IU/ml, 200 μg/ml, Gibco). The Caco-2 cells were cultured under humidified conditions at 37° C. and 5% CO2, and subcultured for every 4 to 5 days. For the permeation test, the cells were cultured on a membrane filter in a 12-transwell (Millipore). To a basal side 1.5 ml of the culture medium was added and 0.5 ml of culture medium was added to an apical side, and the cells were cultured for approximately 2 weeks. The enzymatic hydrolysate of the fermented milk was added to the apical side of the cultured Caco-2 cells. Peptides which were permeated to the basal side were collected. For comparison, the same test was performed on a digestive tract enzyme-degraded product of non-fermented reconstituted skimmed milk with a reconstitution ratio of 8.9%.
The peptides which were permeated to the basal solution were subjected to solid phase extraction (SepPak tC18, Waters) to thereby concentrate the peptide component and then the peptides were determine by using a high-performance liquid chromatograph tandem mass spectrometer (LCMS-IT-TOF, Shimadzu Corporation). PEAKS (Bioinformatics Solutions Inc) was used to analyze the data. Based on the information obtained from MS/MS, de novo sequencing was performed to determine the amino acid sequence of the permeated peptides. Comparison was made between the detected peptides and peptides contained in a digestive tract enzyme-hydrolyzed product of a milk protein.

Permeation through Caco-2 monolayer (apical to basal side), permeable:
CC[C@H](C)[C@H](NC(=O)[C@@H](N)CC(N)=O)C(=O)N1CCC[C@H]1C(=O)N1CCC[C@H]1C(=O)N[C@@H](CC(C)C)C(=O)O [Asn-Ile-Pro-Pro-Leu] (H-NIPPL-OH; N-terminus and C-terminus assumed)
CC[C@H](C)[C@H](N)C(=O)N1CCC[C@H]1C(=O)N1CCC[C@H]1C(=O)N[C@@H](CC(C)C)C(=O)O [Ile-Pro-Pro-Leu] (H-IPPL-OH; N-terminus and C-terminus assumed)
CC[C@H](C)[C@H](N)C(=O)N1CCC[C@H]1C(=O)N1CCC[C@H]1C(=O)O [Ile-Pro-Pro]
CC(C)C[C@H](N)C(=O)N1CCC[C@H]1C(=O)N1CCC[C@H]1C(=O)N[C@H](C(=O)O)[C@@H](C)O [Leu-Pro-Pro-Thr] (H-LPPT-OH; N-terminus and C-terminus assumed)
NC(=O)CC[C@H](NC(=O)[C@@H]1CCCN1C(=O)[C@@H]1CCCN1C(=O)[C@@H](N)Cc1ccccc1)C(=O)O [Phe-Pro-Pro-Gln] (H-FPPQ-OH; N-terminus and C-terminus assumed)
CC(C)[C@H](NC(=O)[C@@H]1CCCN1)C(=O)N[C@H](C(=O)N[C@H](C(=O)N1CCC[C@H]1C(=O)N1CCC[C@H]1C(=O)O)C(C)C)C(C)C [Pro-Val-Val-Val-Pro-Pro] (H-PVVVPP-OH; N-terminus and C-terminus assumed)
CC(C)[C@H](N)C(=O)N1CCC[C@H]1C(=O)N1CCC[C@H]1C(=O)N[C@@H](Cc1ccccc1)C(=O)O [Val-Pro-Pro-Phe] (H-VPPF-OH; N-terminus and C-terminus assumed)
CC(C)[C@H](N)C(=O)N1CCC[C@H]1C(=O)N1CCC[C@H]1C(=O)O [Val-Pro-Pro]
